Assay results published in ChEMBL document CHEMBL6087461, “Cell-Permeable Peptide Inhibitors of the p53-hDM2 Interaction via Foldamer Helix Mimicry and Bis-Thioether Stapling” (J Med Chem, 2025).
Starred links: 1 amine or outer side, 2 acyl side, 3 side chain; linkers in the order of their positions; H or OH if unused. Positions of bridges follow the written chain, without caps; N, C: chain ends. Residues, ends and D or L forms follow the SMILES beside them. *: point of attachment. X9 = CC(C)[C@@H](CNC(N)=O)NC(=O)NC[C@H](CSCc1ccc(-c2ccc(C[*:1])cc2)cc1)NC(=O)NC[C@H](C)N[*:2]; X1 = CC(C)[C@@H](CNC(N)=O)NC(=O)NC[C@H](C)NC(=O)NC[C@H](CSCCCCCC[*:1])N[*:2]; X13 = CC(C)[C@@H](CNC(N)=O)NC(=O)NC[C@H](C)NC(=O)NC[C@H](CSCCCCC[*:1])N[*:2]; X6 = CC(C)[C@@H](CNC(N)=O)NC(=O)NC[C@H](CSCCCCCC[*:1])NC(=O)NC[C@H](C)N[*:2]; X5 = CC(C)[C@@H](CNC(N)=O)NC(=O)NC[C@H](C)NC(=O)NC[C@H](CSCCC[*:1])N[*:2]; X8 = C[C@@H](CNC(N)=O)NC(=O)NC[C@H](C)NC(=O)NC[C@H](CSC/C=C/C[*:1])N[*:2]; X3 = CC(C)[C@@H](CNC(N)=O)NC(=O)NC[C@H](C)NC(=O)NC[C@H](C)N*; CH2CONHCH2CH2NHCOCH2 = O=C(C[*:1])NCCNC(=O)C[*:2]; X14 = C(=C\C[*:2])/C[*:1]; X11 = C(CCC[*:2])CC[*:1]; CH2CH2 = C(C[*:2])[*:1]; X7 = C(CC[*:1])CC[*:2]; X4 = C(C[*:1])C[*:2]

Columns and labels:
[1] = target: Tumour suppressor p53/oncoprotein Mdm2 (Homo sapiens) (UniProt P04637+Q00987); test: PROTAC activity at human MDM2/p53 extracted from Escherichia coli interaction by measuring inhibition of interaction at 100 nM by time-resolved fluorescence energy transfer (TRFRET) detection method relative to control; format: protein assay
[2] = target: Tumour suppressor protein p53/Mdm4 (Homo sapiens) (UniProt P04637+O15151); test: PROTAC activity at human DMX/p53 extracted from Escherichia coli interaction at 100 nM by measuring inhibition of interaction by time-resolved fluorescence energy transfer (TRFRET) detection method relative to control; format: protein assay
[3] = PROTAC activity at human DM2/p53 extracted from Escherichia coli interaction by measuring inhibition of interaction by time-resolved fluorescence energy transfer (TRFRET) detection method
[4] = target: Tumour suppressor protein p53/Mdm4 (Homo sapiens, UniProt O15151); test: PROTAC activity at human DMX/p53 extracted from Escherichia coli interaction by measuring inhibition of interaction by time-resolved fluorescence energy transfer (TRFRET) detection method; format: protein assay
Chain of Tumour suppressor protein p53/Mdm4 (P04637 whole entry): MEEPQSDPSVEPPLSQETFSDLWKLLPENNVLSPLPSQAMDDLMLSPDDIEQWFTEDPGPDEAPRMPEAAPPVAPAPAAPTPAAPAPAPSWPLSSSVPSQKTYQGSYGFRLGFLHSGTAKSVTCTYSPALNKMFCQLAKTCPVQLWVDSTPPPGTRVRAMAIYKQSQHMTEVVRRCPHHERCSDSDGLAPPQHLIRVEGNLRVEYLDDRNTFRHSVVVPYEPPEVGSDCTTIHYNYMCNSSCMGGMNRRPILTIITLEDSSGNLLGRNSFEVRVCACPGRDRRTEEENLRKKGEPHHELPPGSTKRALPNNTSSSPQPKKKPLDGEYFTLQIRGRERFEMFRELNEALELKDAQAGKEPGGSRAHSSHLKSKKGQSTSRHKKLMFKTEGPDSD
Chain of Tumour suppressor protein p53/Mdm4 (O15151 whole entry): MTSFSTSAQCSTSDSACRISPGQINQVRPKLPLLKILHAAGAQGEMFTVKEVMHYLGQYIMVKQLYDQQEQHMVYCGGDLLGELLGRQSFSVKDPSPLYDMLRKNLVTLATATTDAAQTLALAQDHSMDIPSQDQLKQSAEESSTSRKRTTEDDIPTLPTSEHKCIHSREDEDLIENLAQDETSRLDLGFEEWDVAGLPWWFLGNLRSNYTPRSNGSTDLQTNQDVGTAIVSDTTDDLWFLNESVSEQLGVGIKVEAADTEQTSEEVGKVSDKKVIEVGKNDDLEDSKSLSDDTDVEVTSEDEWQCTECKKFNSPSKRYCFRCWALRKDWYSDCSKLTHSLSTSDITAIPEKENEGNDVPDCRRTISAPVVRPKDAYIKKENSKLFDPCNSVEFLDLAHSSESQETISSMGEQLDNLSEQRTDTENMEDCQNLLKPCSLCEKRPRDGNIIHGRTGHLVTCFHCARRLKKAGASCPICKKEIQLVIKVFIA

Chain of Tumour suppressor p53/oncoprotein Mdm2 (Homo sapiens) (P04637 whole entry, looked up): as the sequence (P04637 whole entry) above
Chain of Tumour suppressor p53/oncoprotein Mdm2 (Homo sapiens) (Q00987 whole entry, looked up): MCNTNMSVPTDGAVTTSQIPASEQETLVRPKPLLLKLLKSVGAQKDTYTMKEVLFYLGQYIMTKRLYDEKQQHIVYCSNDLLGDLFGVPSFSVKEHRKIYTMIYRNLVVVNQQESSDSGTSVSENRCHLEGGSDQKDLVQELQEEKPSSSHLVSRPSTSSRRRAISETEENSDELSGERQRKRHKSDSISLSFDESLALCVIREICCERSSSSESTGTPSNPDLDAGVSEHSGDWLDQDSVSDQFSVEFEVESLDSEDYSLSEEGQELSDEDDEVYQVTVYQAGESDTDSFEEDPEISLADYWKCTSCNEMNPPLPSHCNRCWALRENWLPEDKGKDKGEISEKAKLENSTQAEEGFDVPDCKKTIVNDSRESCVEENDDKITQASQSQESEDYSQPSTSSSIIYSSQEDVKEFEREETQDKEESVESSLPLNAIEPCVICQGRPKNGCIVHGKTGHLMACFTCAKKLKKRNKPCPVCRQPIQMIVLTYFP
Chain of Tumour suppressor protein p53/Mdm4 (Homo sapiens) (O15151 whole entry, looked up): as the sequence (O15151 whole entry) above
Chain of Tumour suppressor protein p53/Mdm4 (Homo sapiens) (P04637 whole entry, looked up): as the sequence (P04637 whole entry) above

| inhibition [1] [%] | inhibition [2] [%] | IC50 [3] [µM] | IC50 [4] [µM] | Structure (SMILES) |
| --- | --- | --- | --- | --- |
| 98 | 68 | 0.0234 | 80 | CC(C)[C@@H](CNC(N)=O)NC(=O)NC[C@H](C)NC(=O)NC[C@H](C)NC(=O)[C@H](Cc1c[nH]c2ccccc12)NC(=O)[C@H](Cc1ccc(O)cc1)NC(=O)[C@@H]1CSCCCSC[C@H](N)C(=O)N[C@@H](CO)C(=O)N[C@@H](Cc2ccccc2)C(=O)N[C@@H](C)C(=O)N1 (H-CSFACYW-X3; linker 1-5 via X4) |
| 41 | 20 | 0.109 | 763 | CC(C)[C@@H](CNC(N)=O)NC(=O)NC[C@H](C)NC(=O)NC[C@H](C)NC(=O)[C@H](Cc1c[nH]c2ccccc12)NC(=O)[C@H](Cc1ccc(O)cc1)NC(=O)[C@@H]1CSCCCSC[C@H](NC(=O)[C@@H](N)[C@@H](C)O)C(=O)N[C@@H](Cc2ccccc2)C(=O)N[C@@H](C)C(=O)N1 (H-TCFACYW-X3; linker 2-5 via X4) |
| 15 | 1 | – | – | CC(C)[C@@H](CNC(N)=O)NC(=O)NC[C@H](C)NC(=O)NC[C@H](C)NC(=O)[C@H](Cc1c[nH]c2ccccc12)NC(=O)[C@H](Cc1ccc(O)cc1)NC(=O)[C@@H]1CSCCCCCCSC[C@H](N)C(=O)N[C@@H](CO)C(=O)N[C@@H](Cc2ccccc2)C(=O)N[C@@H](C)C(=O)N1 (H-CSFACYW-X3; linker 1-5 via X11) |
| 20 | -4 | – | – | CC(C)[C@@H](CNC(N)=O)NC(=O)NC[C@H](C)NC(=O)NC[C@H](C)NC(=O)[C@H](Cc1c[nH]c2ccccc12)NC(=O)[C@H](Cc1ccc(O)cc1)NC(=O)[C@@H]1CSSC[C@H](N)C(=O)N[C@@H](CO)C(=O)N[C@@H](Cc2ccccc2)C(=O)N[C@@H](C)C(=O)N1 (H-CSFACYW-X3; disulfide 1-5) |
| 30 | 12 | – | – | CC(C)[C@@H](CNC(N)=O)NC(=O)NC[C@H](C)NC(=O)NC[C@H](C)NC(=O)[C@H](Cc1c[nH]c2ccccc12)NC(=O)[C@H](Cc1ccc(O)cc1)NC(=O)[C@@H]1CSCCCCCSC[C@H](NC(=O)[C@@H](N)[C@@H](C)O)C(=O)N[C@@H](Cc2ccccc2)C(=O)N[C@@H](C)C(=O)N1 (H-TCFACYW-X3; linker 2-5 via X7) |
| 88 | 68 | – | – | CC(C)[C@@H](CNC(N)=O)NC(=O)NC[C@H](C)NC(=O)NC[C@H](C)NC(=O)[C@H](Cc1c[nH]c2ccccc12)NC(=O)[C@H](Cc1ccc(O)cc1)NC(=O)[C@@H]1CSC/C=C/CSC[C@H](N)C(=O)N[C@@H](CO)C(=O)N[C@@H](Cc2ccccc2)C(=O)N[C@@H](C)C(=O)N1 (H-CSFACYW-X3; linker 1-5 via X14) |
| 73 | 38 | – | – | CC(C)[C@@H](CNC(N)=O)NC(=O)NC[C@H](C)NC(=O)NC[C@H](C)NC(=O)[C@H](Cc1c[nH]c2ccccc12)NC(=O)[C@H](Cc1ccc(O)cc1)NC(=O)[C@@H]1CSCC(=O)NCCNC(=O)CSC[C@H](NC(=O)[C@@H](N)[C@@H](C)O)C(=O)N[C@@H](Cc2ccccc2)C(=O)N[C@@H](C)C(=O)N1 (H-TCFACYW-X3; linker 2-5 via CH2CONHCH2CH2NHCOCH2) |
| 47 | 39 | – | – | CC(C)[C@@H](CNC(N)=O)NC(=O)NC[C@H](C)NC(=O)NC[C@H](C)NC(=O)[C@H](Cc1c[nH]c2ccccc12)NC(=O)[C@H](Cc1ccc(O)cc1)NC(=O)[C@@H]1CSCCSC[C@H](N)C(=O)N[C@@H](CO)C(=O)N[C@@H](Cc2ccccc2)C(=O)N[C@@H](C)C(=O)N1 (H-CSFACYW-X3; linker 1-5 via CH2CH2) |
| 36 | 14 | – | – | CC(C)[C@@H](CNC(N)=O)NC(=O)NC[C@H](C)NC(=O)NC[C@H](C)NC(=O)[C@H](Cc1c[nH]c2ccccc12)NC(=O)[C@H](Cc1ccc(O)cc1)NC(=O)[C@@H]1CSCCCCCCSC[C@H](NC(=O)[C@@H](N)[C@@H](C)O)C(=O)N[C@@H](Cc2ccccc2)C(=O)N[C@@H](C)C(=O)N1 (H-TCFACYW-X3; linker 2-5 via X11) |

The remaining lines, values behind:

| Structure (SMILES) | inhibition [1] [%] | inhibition [2] [%] | IC50 [3] [µM] | IC50 [4] [µM] |
| --- | --- | --- | --- | --- |
| CC(C)[C@@H](CNC(N)=O)NC(=O)NC[C@H](C)NC(=O)NC[C@@H]1CSCCCSC[C@H](NC(=O)[C@H](Cc2ccccc2)NC(=O)[C@H](CO)NC(=O)[C@@H](N)[C@@H](C)O)C(=O)N[C@@H](CCC(=O)O)C(=O)N[C@@H](Cc2ccc(O)cc2)C(=O)N[C@@H](Cc2c[nH]c3ccccc23)C(=O)N1 (H-TSFCEYW; linker 4-C via X5) | 86 | 50 | 0.0256 | 108 |
| CC(C)[C@@H](CNC(N)=O)NC(=O)NC[C@H](C)NC(=O)NC[C@H](C)NC(=O)[C@H](Cc1c[nH]c2ccccc12)NC(=O)[C@H](Cc1ccc(O)cc1)NC(=O)[C@H](CCC(=O)O)NC(=O)[C@H](C)NC(=O)[C@H](Cc1ccccc1)NC(=O)[C@H](CO)NC(=O)[C@@H](N)CCCCN (H-KSFAEYW-X3) | 98 | 85 | – | – |
| CC(C)[C@@H](CNC(N)=O)NC(=O)NC[C@@H]1CSCc2ccc(cc2)-c2ccc(cc2)CSC[C@H](N)C(=O)N[C@@H](CO)C(=O)N[C@@H](Cc2ccccc2)C(=O)N[C@@H](C)C(=O)N[C@@H](CCC(=O)O)C(=O)N[C@@H](Cc2ccc(O)cc2)C(=O)N[C@@H](Cc2c[nH]c3ccccc23)C(=O)N[C@@H](C)CNC(=O)N1 (H-CSFAEYW; linker 1-C via X9) | 7 | 10 | – | – |
| CC(C)[C@@H](CNC(N)=O)NC(=O)NC[C@H](C)NC(=O)NC[C@@H]1CSCCCCCSC[C@H](NC(=O)[C@H](Cc2ccccc2)NC(=O)[C@H](CO)NC(=O)[C@@H](N)[C@@H](C)O)C(=O)N[C@@H](CCC(=O)O)C(=O)N[C@@H](Cc2ccc(O)cc2)C(=O)N[C@@H](Cc2c[nH]c3ccccc23)C(=O)N1 (H-TSFCEYW; linker 4-C via X13) | 79 | 47 | – | – |
| C[C@@H](CNC(N)=O)NC(=O)NC[C@H](C)NC(=O)NC[C@@H]1CSC/C=C/CSC[C@H](NC(=O)[C@H](Cc2ccccc2)NC(=O)[C@H](CO)NC(=O)[C@@H](N)[C@@H](C)O)C(=O)N[C@@H](CCC(=O)O)C(=O)N[C@@H](Cc2ccc(O)cc2)C(=O)N[C@@H](Cc2c[nH]c3ccccc23)C(=O)N1 (H-TSFCEYW; linker 4-C via X8) | 82 | 57 | – | – |
| CC(C)[C@@H](CNC(N)=O)NC(=O)NC[C@H](C)NC(=O)NC[C@@H]1CSCCCCCCSC[C@H](NC(=O)[C@H](Cc2ccccc2)NC(=O)[C@H](CO)NC(=O)[C@@H](N)[C@@H](C)O)C(=O)N[C@@H](CCCNC(=N)N)C(=O)N[C@@H](Cc2ccc(O)cc2)C(=O)N[C@@H](Cc2c[nH]c3ccccc23)C(=O)N1 (H-TSFCRYW; linker 4-C via X1) | 42 | 2 | – | – |
| CC(=O)N[C@@H](CCCCN)C(=O)N[C@H](C(=O)N[C@@H](Cc1ccccc1)C(=O)N[C@@H](C)C(=O)N[C@@H](CCC(=O)O)C(=O)N[C@@H](Cc1ccc(O)cc1)C(=O)N[C@@H](Cc1c[nH]c2ccccc12)C(=O)N[C@@H](C)CNC(=O)N[C@@H](C)CNC(=O)N[C@H](CNC(N)=O)C(C)C)[C@@H](C)O (Ac-KTFAEYW-X3) | – | – | 0.0057 | 23.8 |
| CC(C)[C@@H](CNC(N)=O)NC(=O)NC[C@@H]1CSCCCCCCSC[C@H](N)C(=O)N[C@@H](CO)C(=O)N[C@@H](Cc2ccccc2)C(=O)N[C@@H](C)C(=O)N[C@@H](CCC(=O)O)C(=O)N[C@@H](Cc2ccc(O)cc2)C(=O)N[C@@H](Cc2c[nH]c3ccccc23)C(=O)N[C@@H](C)CNC(=O)N1 (H-CSFAEYW; linker 1-C via X6) | 70 | 54 | – | – |
